The source of these data is PMC12366525, “Characterization of allosteric modulators that disrupt androgen receptor co-activator protein-protein interactions to alter transactivation–Drug leads for metastatic castration resistant prostate cancer” (SLAS discovery : advancing life sciences R & D, 2023).

“And” between values parts separate entries of the source, which are not always exact repeats. Equal values may be shown once. Read-outs that look alike come from different tables or passages of the source.

Format in all cases: cell-based
The test system of data set [1] is 22Rv1 cells. Kind of data set: Prostate cancer cell line growth inhibition assay, 22Rv1. The following applies: read-out: 22Rv1 GI50 (AR+). As to the method: (§1) The PC-3, DU-145, LNCaP, C4–2, and 22Rv1 PC cell line growth inhibition assays have been described previously. On day 1, each PC cell line was harvested, counted, and seeded into two 384-well assay plates, a time zero (T0) and a time 72 h (T72) plate. PC cell lines were all seeded at 1000 cells per well in 45 μL of tissue culture media in uncoated white clear bottom 384-well assay plates (VWR, # 82050–076) using a Matrix electronic multichannel pipette (Thermo Fisher Scientific, Waltham, MA) and cultured overnight at 37 °C, 5% CO2, and 95% humidity. On day 2, 25 μL of the Cell Titer Glo (CTG) (Promega Corporation, Madison, WI) detection reagent was dispensed into the wells of the T0 assay plate using a Matrix electronic multichannel pipette, and the RLUs were captured on the SpectraMax M5e (Molecular Devices LLC, Sunnyvale, CA) microtiter plate reader. Also on day 2, 5 μL of compounds were transferred into the test wells of the T72 384-well assay plates which were returned to the incubator for 72 h. Control wells received DMSO alone. On day 5, 25 μL of the CTG detection reagent was dispensed into the wells of the T72 assay plate using a Matrix electronic multichannel pipette, and the RLU’s were captured on the SpectraMax M5e microtiter plate reader platform.
(§2) In 384-well assays, DMSO minimum (n = 32) and maximum (n = 32) plate control wells were utilized to calculate signal-to-background ratios (S:B) and Z’-factor coefficient assay performance quality control statistics, and to normalize the signals of compound treated wells and to represent 0% and 100% respectively. For the 96-well AR-LBD H^3-DHT radioligand binding assay, eight minimum and maximum plate control wells were utilized to normalize the data. For the PC cell line growth inhibition assays we used the DMSO control data from the T0 and T72 assay plates to assess the dynamic range of the T0 to T72 cell growth, and to calculate S:B ratios and Z’-factor coefficient statistics for the assay signal window (T0 to T72). To normalize the 72 h compound exposure PC growth inhibition data, the signals from the compound treated wells were processed and expressed as% of the T72 DMSO plate controls. IC50 and GI50 values for each of the bioassays were calculated using Graph-Pad Prism 9 software to plot and fit data to curves using the Sigmoidal dose response variable slope equation Y = Bottom + [Top-Bottom]/ [1 + 10^^(LogEC50-X)*HillSlope].

In data set [2] the target is T1, full length AR (Homo sapiens, UniProt P10275, T878A).
T1 construct: DHT-induced full length AR directed TA; endogenous in cells; host or cells: C4–2 castration resistant prostate cancer cells
T1 sequence (P10275 1-920 T878A): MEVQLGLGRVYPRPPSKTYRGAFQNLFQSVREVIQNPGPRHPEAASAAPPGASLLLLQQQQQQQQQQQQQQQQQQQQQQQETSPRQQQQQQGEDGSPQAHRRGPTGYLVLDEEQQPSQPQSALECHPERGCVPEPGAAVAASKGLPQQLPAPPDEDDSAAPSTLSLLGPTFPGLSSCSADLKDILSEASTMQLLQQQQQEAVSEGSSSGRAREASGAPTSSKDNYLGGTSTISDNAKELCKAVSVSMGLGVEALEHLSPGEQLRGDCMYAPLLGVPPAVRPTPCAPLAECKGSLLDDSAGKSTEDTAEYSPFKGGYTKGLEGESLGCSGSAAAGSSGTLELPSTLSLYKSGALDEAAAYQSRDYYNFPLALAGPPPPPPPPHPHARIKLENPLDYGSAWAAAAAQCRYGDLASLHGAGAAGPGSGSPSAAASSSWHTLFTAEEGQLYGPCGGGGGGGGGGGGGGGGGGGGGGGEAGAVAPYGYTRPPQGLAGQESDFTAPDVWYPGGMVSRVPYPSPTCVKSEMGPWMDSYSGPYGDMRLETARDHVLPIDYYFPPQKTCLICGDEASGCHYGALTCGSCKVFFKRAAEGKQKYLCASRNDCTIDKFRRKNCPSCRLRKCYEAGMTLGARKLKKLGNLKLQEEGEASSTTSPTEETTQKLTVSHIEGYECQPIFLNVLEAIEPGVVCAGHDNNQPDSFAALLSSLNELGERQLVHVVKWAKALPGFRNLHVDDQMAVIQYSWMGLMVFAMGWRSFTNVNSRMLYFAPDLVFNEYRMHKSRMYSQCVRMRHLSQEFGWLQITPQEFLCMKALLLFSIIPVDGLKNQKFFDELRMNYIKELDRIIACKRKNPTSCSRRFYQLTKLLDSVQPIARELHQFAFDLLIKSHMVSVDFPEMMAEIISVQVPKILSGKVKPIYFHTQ
Kind of data set: PSA-6.1 luciferase reporter assay in C4–2 CRPC cells. The following applies: C4–2 cells; 50 nM DHT; 24 h; read-out: C4–2 PSA6.1-Luc Reporter IC50. As to the method: The PSA-6.1-Luc luciferase reporter plasmid was provided by Dr. Zhou Wang in the Urology department of the University of Pittsburgh Cancer Institute. The PSA-6.1-Luc reporter is controlled by a fragment of the PSA promoter that contains at least three AREs. The PSA-6.1-Luc plasmid (12 ng/well) was combined with Fugene 6 at a ratio 6:1 in SFM and incubated for 25 min at room temperature before being combined with C4–2 cells suspended in RPMI 1640 media containing 1% penicillin-streptomycin, 1% L-glutamine, and 10% FBS. Transfected cells were then seeded into white opaque 384-well assay plates (Greiner Bio-one, #781080) at 6000 cells per well in a volume of 30 μL and incubated in 5% CO2, 37 °C, and 95% humidity for 24 h.

A short description of data set [3]: M2H viability counter screen. The conditions noted are these: human, HEK 293 cells; cytotoxicity counter screen; read-out: M2H viability CS GI50.
The test system of data set [4] is C4–2 cells. Kind of data set: Prostate cancer cell line growth inhibition assay, C4–2. The conditions noted are these: read-out: C4–2 GI50 (AR +). The procedure: as §1, §2
Data set [5] in a line: C4–2 PSA6.1-Luc viability counter screen. The conditions noted are these: human, C4–2 cells (C4–2 PSA6.1-Luc); cytotoxicity counter screen; read-out: C4–2 PSA6.1-Luc viability CS GI50.
Data set [6] relates to PC-3 cells. As to the kind of experiment: Prostate cancer cell line growth inhibition assay, PC-3. The following applies: read-out: PC3 GI50 (AR−). As to the method: as §1, §2

On to `Cc1ccccc1-c1cc(O)c2c(c1)CN(c1nc(C(N)=O)cs1)CCO2` [S1–1], for which the GI50 was 55.5 µM in data set [1] (Homo sapiens, 22Rv1, 72 h); 58.6 µM in data set [3]; 31.7 µM in data set [4] (C4-2, 72 h); over 100 µM in data set [5]; 70.3 µM in data set [6] (72 h); 70 µM in data set [6] (Homo sapiens, PC-3, 72 h). The half-inhibitory concentration (IC50) in data set [2] was 17.1 µM.

`Cc1ccccc1-c1cc(O)c2c(c1)CN(c1nccs1)CCO2` [S1–3]: the GI50 in data set [1] (72 h) was 75.2 µM; in data set [4] (72 h) it was 45.5 µM; in data set [6] (72 h), over 100 µM. In addition, in data set [2], the IC50 worked out at 29.7 µM.

Take `Cc1nsc(NC(=O)N2CCC(Sc3ccccc3C)CC2)n1` [S2–6]: the GI50 in data set [1] (Homo sapiens, 22Rv1, 72 h) was 17.6 µM; in data set [3], over 100 µM; in data set [4] (C4-2, 72 h), 14.1 µM; in data set [5] it was over 100 µM; in data set [6] (Homo sapiens, PC-3, 72 h), over 100 µM. In addition, in data set [2], the IC50 was 2 µM and 2.3 µM.

For the compound `Cc1c(-c2ccccc2F)[nH]c2ccc(CNC(=O)CCc3cn[nH]c3)cc12` [S3–11], the GI50 in data set [1] (Homo sapiens, 22Rv1, 72 h) is 15 µM; in data set [3], 69.2 µM; in data set [4] (C4-2, 72 h) it was 7.93 µM; in data set [5], over 100 µM; in data set [6] (Homo sapiens, PC-3, 72 h) it was 32.6 µM. Moreover, the IC50 in data set [2] amounted to 9 µM.

On to `Cc1c(-c2ccccc2F)[nH]c2ccc(CNC(=O)CCc3cnccn3)cc12` [S3–12], for which the GI50 in data set [1] (Homo sapiens, 22Rv1, 72 h) is 20.5 µM; in data set [3] it was over 100 µM; in data set [4] (C4-2, 72 h) it was 1.92 µM; in data set [5] it was over 100 µM; in data set [6] (Homo sapiens, PC-3, 72 h), 18.4 µM. In addition, in data set [2], the IC50 is 7.7 µM.

Take `CC(=O)NCCC(=O)NCc1ccc2[nH]c(-c3ccccc3F)c(C)c2c1` [S3–13]: the GI50 in data set [1] (Homo sapiens, 22Rv1, 72 h) was over 100 µM; in data set [3] it was over 100 µM; in data set [4] (C4-2, 72 h), 69.8 µM; in data set [5], over 100 µM; in data set [6] (Homo sapiens, PC-3, 72 h), over 100 µM. In addition, the half-maximal inhibitory concentration (IC50) in data set [2] is 58.5 µM.

On to `Cc1c(-c2ccccc2F)[nH]c2ccc(CNC(=O)c3ccc(CO)o3)cc12` [S3–14], for which the GI50 in data set [1] (Homo sapiens, 22Rv1, 72 h) is 102 µM; in data set [3], over 100 µM; in data set [4] (C4-2, 72 h) it was 33 µM; in data set [5] it was over 100 µM; in data set [6] (Homo sapiens, PC-3, 72 h), over 100 µM. For the same compound, in data set [2], the IC50 amounted to 10.8 µM.

On to `Cc1c(-c2ccc(F)cc2)[nH]c2ccc(CNC(=O)c3ccc(CO)o3)cc12` [S3–15], for which the GI50 was 17.4 µM in data set [1] (Homo sapiens, 22Rv1, 72 h); over 100 µM in data set [3]; 16.8 µM in data set [4] (C4-2, 72 h); over 100 µM in data set [5]; 23.7 µM in data set [6] (Homo sapiens, PC-3, 72 h). The IC50 in data set [2] worked out at 7 µM.
